Source: ChEMBL document CHEMBL5543162, “Discovery of a Novel Orally Bioavailable FLT3-PROTAC Degrader for Efficient Treatment of Acute Myeloid Leukemia and Overcoming Resistance of FLT3 Inhibitors” (J Med Chem, 2024)
Calls of active or inactive are those of the source. No cut-off for these calls is given here.

How the values were obtained:
MOLM-13 [1] = assay: Antiproliferative activity against Quizartinib-resistant human MOLM-13 cells incubated for 48 hrs by CCK8 assay; format: functional, cell-based; conditions: MOLM-13, 48 h
[2] = Stability in rat liver microsomes assessed as half life; format: ADME, Microsome
[3] = Tmax in Sprague-Dawley rat at 10 mg/kg, po measured for 24 hrs by LC-MS/MS analysis; format: ADME, organism-based; conditions: in vivo
[4] = tested on: Protein cereblon/Receptor-type tyrosine-protein kinase FLT3 (Homo sapiens), P36888+Q96SW2 [UNDEFINED MUTATION]; assay: PROTAC activity at CRBN/FLT3-ITD mutant in human MV4-11 cells assessed as protein degradation incubated for 12 hrs by Western blot analysis; format: cell-based; conditions: dose <= 20.0 nM
[5] = tested on: Protein cereblon/Receptor-type tyrosine-protein kinase FLT3 (Homo sapiens), P36888+Q96SW2 [UNDEFINED MUTATION]; assay: PROTAC activity at CRBN/FLT3-ITD mutant in human MV4-11 cells assessed as decrease in ERK level at 20 nM by Western blot analysis; format: cell-based; conditions: time <= 12.0 hrs, TDE = time-dependent effect
[6] = target: T1, Protein cereblon/Receptor-type tyrosine-protein kinase FLT3 (Homo sapiens, UniProt P36888+Q96SW2); assay: PROTAC activity at CRBN/FLT3-ITD mutant in human MOLM-13 cells assessed as protein degradation by Western blot analysis; format: cell-based
Mus musculus [7] = assay: Anti-leukemic activity in NSG mouse xenografted with human MV4-11 cells expressing luciferase assessed as decrease in CD45+/CD33+ cells proportion in peripheral blood at 1.25 to 10 mg/kg, po administered daily for 3 weeks; format: functional, organism-based; conditions: dose 1.25-10 mg/kg
MV4-11 [8] = assay: Antitumor activity against human MV4-11 cells xenografted with nude mouse assessed as decrease in tumor growth at 120 mg/kg, po administered daily measured after 3 days; format: functional, organism-based; conditions: time 3.0 day
[9] = Stability in monkey liver microsomes assessed as half life; format: ADME, Microsome; conditions: chlorocebus aethiops
CYP3A4/CYP3A5 = CYP3A4/CYP3A5 (Homo sapiens, UniProt P08684+P20815); assay: Inhibition of CYP3A4/CYP3A5 (unknown origin) using testosterone as substrate; format: ADME, protein assay; conditions: probe testosterone
[10] = Antiproliferative activity against human HL-60 cells expressing wild-type FLT3 incubated for 48 hrs by CCK8 assay; format: toxicity, cell-based
Mus musculus [11] = assay: Anti-leukemic activity in NSG mouse xenografted with human MV4-11 cells expressing luciferase assessed as decrease in CD45+/CD33+ cells proportion in bone marrow at 1.25 to 10 mg/kg, po administered daily for 3 weeks; format: functional, organism-based; conditions: dose 1.25-10 mg/kg
[12] = Toxicity in nu/nu mouse xenografted with human MV4-11 cells assessed as damage in liver at 1.25 to 10 mg/kg, po administered daily for 2 weeks by H and E staining based analysis; format: organism-based; conditions: in vivo, 336 h, dose 1.25-10 mg/kg
[13] = Stability in rat liver microsomes assessed as hepatic clearance; format: ADME, Microsome
[14] = Stability in rat liver microsomes assessed as intrinsic clearance; format: ADME, Microsome; conditions: read-out: CLH
[15] = Stability in dog liver microsomes assessed as intrinsic clearance; format: ADME, Canis lupus familiaris, Microsome; conditions: read-out: CLH
[16] = tested on: Protein cereblon/Receptor-type tyrosine-protein kinase FLT3 (Homo sapiens), P36888+Q96SW2 [UNDEFINED MUTATION]; assay: (§1) PROTAC activity at CRBN/FLT3-ITD mutant in human MV4-11 cells assessed as protein degradation by Western blot analysis; format: cell-based
[17] = target: T1, Protein cereblon/Receptor-type tyrosine-protein kinase FLT3; assay: as §1; format: cell-based
[18] = Stability in monkey liver microsomes assessed as hepatic clearance; format: ADME, Microsome; conditions: chlorocebus aethiops
[19] = Stability in mouse liver microsomes assessed as half life; format: ADME, Microsome
MOLM-13 [20] = assay: Antiproliferative activity against human MOLM-13 cells incubated for 48 hrs by CCK8 assay; format: functional, cell-based; conditions: MOLM-13, 48 h
Cytochrome P450 2C8 = target: T2, Cytochrome P450 2C8 (Homo sapiens, UniProt P10632); assay: Inhibition of CYP2C8 (unknown origin); format: ADME
T2 sequence (P10632 whole entry): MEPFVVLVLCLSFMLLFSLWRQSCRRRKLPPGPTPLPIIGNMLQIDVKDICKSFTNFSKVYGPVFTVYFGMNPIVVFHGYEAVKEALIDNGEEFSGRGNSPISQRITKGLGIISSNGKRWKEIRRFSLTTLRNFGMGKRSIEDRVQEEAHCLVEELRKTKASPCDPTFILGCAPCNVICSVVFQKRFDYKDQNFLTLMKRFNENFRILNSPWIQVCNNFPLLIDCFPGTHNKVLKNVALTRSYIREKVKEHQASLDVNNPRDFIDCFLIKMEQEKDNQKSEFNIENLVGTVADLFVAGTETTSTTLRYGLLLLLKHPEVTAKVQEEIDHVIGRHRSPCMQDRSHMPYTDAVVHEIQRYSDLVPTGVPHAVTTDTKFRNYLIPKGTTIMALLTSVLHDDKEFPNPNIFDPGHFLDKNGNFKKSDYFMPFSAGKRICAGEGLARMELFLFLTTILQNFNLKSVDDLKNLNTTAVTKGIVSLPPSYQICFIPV

MV4-11 [21] = assay: Antitumor activity against human MV4-11 cells expressing luciferase xenografted in NSG mouse assessed as increase in animal survival at 2.5 mg/kg, po administered daily for 3 weeks and measured for 58 days; format: functional, organism-based; conditions: time 58.0 day
[22] = Clearance in Sprague-Dawley rat at 10 mg/kg, po measured for 24 hrs by LC-MS/MS analysis; format: ADME, organism-based; conditions: in vivo
[23] = Clearance in Sprague-Dawley rat at 1 mg/kg, iv measured for 24 hrs by LC-MS/MS analysis; format: ADME, organism-based; conditions: in vivo
Cytochrome P450 2C19 = Cytochrome P450 2C19 (Homo sapiens, UniProt P33261); assay: Inhibition of CYP2C19 (unknown origin); format: ADME
MV4-11 [24] = assay: Antitumor activity against human MV4-11 cells expressing luciferase xenografted in NSG mouse assessed as decrease in leukemic burden at 2.5 to 10 mg/kg, po administered daily for 3 weeks by bioluminescence imaging; format: functional, organism-based; conditions: dose 2.5-10 mg/kg
[25] = tested on: Protein cereblon/Receptor-type tyrosine-protein kinase FLT3 (Homo sapiens), P36888+Q96SW2 [UNDEFINED MUTATION]; assay: PROTAC activity at CRBN/FLT3-ITD mutant in human MV4-11 cells assessed as decrease in ERK level incubated for 12 hrs by Western blot analysis; format: cell-based; conditions: dose <= 20.0 nM
Cytochrome P450 2B6 = target: T3, Cytochrome P450 2B6 (Homo sapiens, UniProt P20813); assay: Inhibition of CYP2B6 (unknown origin); format: ADME
T3 sequence (P20813 whole entry): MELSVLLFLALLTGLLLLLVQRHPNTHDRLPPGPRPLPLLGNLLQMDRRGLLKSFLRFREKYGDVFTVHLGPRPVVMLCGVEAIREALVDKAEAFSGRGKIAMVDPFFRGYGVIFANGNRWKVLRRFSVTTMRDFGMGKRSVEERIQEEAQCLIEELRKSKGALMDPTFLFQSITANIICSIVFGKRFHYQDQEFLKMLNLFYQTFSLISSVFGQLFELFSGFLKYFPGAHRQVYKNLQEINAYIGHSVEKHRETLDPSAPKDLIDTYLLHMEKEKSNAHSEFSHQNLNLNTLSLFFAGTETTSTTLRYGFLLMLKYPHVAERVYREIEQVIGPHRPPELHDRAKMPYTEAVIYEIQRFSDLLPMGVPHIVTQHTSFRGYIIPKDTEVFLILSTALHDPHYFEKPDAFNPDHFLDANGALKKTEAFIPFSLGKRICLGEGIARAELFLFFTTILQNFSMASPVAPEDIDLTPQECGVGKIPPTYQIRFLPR

[26] = Stability in human liver microsomes assessed as hepatic clearance; format: ADME, Microsome
[27] = Half life in Sprague-Dawley rat at 10 mg/kg, po measured for 24 hrs by LC-MS/MS analysis; format: ADME, organism-based; conditions: in vivo

Chain of Protein cereblon/Receptor-type tyrosine-protein kinase FLT3 (Homo sapiens), P36888+Q96SW2 [UNDEFINED MUTATION] (P36888 whole entry, looked up, change not shown): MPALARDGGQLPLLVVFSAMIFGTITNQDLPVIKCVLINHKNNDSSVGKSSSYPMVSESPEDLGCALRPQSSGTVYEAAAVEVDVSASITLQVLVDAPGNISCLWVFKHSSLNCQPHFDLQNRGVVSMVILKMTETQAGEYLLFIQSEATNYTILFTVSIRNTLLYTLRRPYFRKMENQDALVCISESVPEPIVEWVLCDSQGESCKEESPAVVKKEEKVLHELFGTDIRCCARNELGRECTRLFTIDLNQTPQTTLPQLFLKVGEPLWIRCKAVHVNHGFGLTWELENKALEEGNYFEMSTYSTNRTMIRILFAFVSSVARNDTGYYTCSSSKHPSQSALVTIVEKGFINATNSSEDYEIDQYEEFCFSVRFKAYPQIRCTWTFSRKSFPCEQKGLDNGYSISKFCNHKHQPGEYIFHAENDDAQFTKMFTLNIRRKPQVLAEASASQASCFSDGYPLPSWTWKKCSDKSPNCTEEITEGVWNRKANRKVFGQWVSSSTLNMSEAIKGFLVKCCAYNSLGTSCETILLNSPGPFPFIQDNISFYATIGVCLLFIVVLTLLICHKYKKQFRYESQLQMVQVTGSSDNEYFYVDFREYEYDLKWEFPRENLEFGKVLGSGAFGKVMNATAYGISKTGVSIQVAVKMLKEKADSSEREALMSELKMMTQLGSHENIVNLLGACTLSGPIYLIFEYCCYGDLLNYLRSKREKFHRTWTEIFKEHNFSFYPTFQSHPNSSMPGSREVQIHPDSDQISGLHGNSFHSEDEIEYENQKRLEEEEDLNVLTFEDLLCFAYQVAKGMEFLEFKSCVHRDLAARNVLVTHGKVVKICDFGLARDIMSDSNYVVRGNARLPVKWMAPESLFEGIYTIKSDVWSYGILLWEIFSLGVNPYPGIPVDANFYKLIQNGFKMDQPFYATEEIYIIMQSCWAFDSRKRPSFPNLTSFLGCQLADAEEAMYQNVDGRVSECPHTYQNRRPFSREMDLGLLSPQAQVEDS
Chain of Protein cereblon/Receptor-type tyrosine-protein kinase FLT3 (Homo sapiens), P36888+Q96SW2 [UNDEFINED MUTATION] (Q96SW2 whole entry, looked up, change not shown): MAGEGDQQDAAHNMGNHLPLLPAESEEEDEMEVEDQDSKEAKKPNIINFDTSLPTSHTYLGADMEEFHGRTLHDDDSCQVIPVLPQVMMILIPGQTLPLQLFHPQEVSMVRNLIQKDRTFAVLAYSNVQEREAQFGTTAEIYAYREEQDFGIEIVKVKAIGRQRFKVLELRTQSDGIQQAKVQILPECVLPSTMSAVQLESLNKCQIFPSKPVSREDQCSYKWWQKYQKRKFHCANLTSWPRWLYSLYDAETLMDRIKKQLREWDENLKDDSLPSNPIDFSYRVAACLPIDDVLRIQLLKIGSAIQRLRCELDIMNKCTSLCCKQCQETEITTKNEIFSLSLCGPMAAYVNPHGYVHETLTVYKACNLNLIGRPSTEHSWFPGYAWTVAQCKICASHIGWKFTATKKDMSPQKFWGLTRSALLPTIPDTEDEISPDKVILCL
T1 sequence (P36888 whole entry, looked up, change not shown): as the sequence (P36888 whole entry, looked up, change not shown) above
T1 sequence (Q96SW2 whole entry, looked up, change not shown): as the sequence (Q96SW2 whole entry, looked up, change not shown) above
Chain of Cytochrome P450 2C19 (P33261 whole entry): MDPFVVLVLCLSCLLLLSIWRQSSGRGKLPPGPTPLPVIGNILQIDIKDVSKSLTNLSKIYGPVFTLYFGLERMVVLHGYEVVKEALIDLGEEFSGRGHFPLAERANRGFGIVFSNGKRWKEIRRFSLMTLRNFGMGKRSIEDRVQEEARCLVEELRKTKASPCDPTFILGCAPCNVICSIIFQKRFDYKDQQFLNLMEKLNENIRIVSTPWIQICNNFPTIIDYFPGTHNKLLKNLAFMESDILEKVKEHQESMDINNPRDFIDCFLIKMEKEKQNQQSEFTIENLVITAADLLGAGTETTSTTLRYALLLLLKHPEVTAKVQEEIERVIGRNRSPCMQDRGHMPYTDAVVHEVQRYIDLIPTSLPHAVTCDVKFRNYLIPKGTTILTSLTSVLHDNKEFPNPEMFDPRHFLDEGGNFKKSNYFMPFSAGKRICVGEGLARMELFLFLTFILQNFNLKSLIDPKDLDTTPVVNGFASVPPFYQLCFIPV

Cc1c(NC(=O)CN2CCN(CC3CCN(c4ccc5c(c4)C(=O)N(C4CCC(=O)NC4=O)C5=O)CC3)CC2)c[nH]c1/C=C1\C(=O)Nc2ccc(F)cc21 (stereo unspecified)
IC50 (MOLM-13 [1]): 484 nM
half-life [2]: 1.54 h
Tmax [3]: 6.2 h
Activity [4]: Dose-Dependent Effect
Activity [5]: Tde
DC50 [6]: 20.1 nM
Activity (Mus musculus [7]): Active
Activity (MV4-11 [8]): Active
half-life [9]: 0.615 h
IC50 (CYP3A4/CYP3A5): > 50000 nM
IC50 at 48 h [10]: > 40000 nM
Activity (Mus musculus [11]): Active
Activity [12]: Non-Toxic
CLhep predicted [13]: 20.5 mL/min/kg
CLint scaled [14]: 27 mL/min/kg
CLint scaled [15]: 17.7 mL/min/kg
Activity [16]: Dose-Dependent Effect
DC50 [17]: 7.4 nM
CLhep predicted [18]: 23.4 mL/min/kg
half-life [19]: 0.982 h
IC50 (MOLM-13 [20]): 170 nM
IC50 (Cytochrome P450 2C8): > 50000 nM
Activity (MV4-11 [21]): Active
CL/F [22]: 11.2 mL/min/kg
clearance [23]: 3.5 mL/min/kg
IC50 (Cytochrome P450 2C19): > 50000 nM
Activity (MV4-11 [24]): Active
Activity [25]: Dose-Dependent Effect
IC50 (Cytochrome P450 2B6): > 50000 nM
CLhep predicted [26]: 10.9 mL/min/kg
half-life [27]: 3.8 h
